# From patent publication US20060252807A1, “Novel ortho-terphenyl inhibitors of p38 kinase and methods of treating inflammatory disorders” (Kalypsys, Inc., priority 2005, published 2006)
# pIC50: −log10 of the molar value.
# Target: T1, active p38 alpha enzyme (Upstate Biotechnology) (Homo sapiens, UniProt Q16539)
# T1 construct: purchased Upstate Biotechnology
# Experiment: p38α biochemical assay (ATP turnover, luminescent detection, Cambrex PKlight)
# Details: p38α kinase; Table 1 Biological Activity
# Method in brief: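 Active p38α phosphorylates MapkapK2 whole protein with 1.4 uM final ATP, 2 h at 30C, in Tris/MOPS buffer with MgCl2, CaCl2, EGTA, EDTA, glycerol, β-mercaptoethanol and 1 mg/ml BSA. Compounds pin-delivered from DMSO; total ATP turnover read by luminescence after PKlight addition.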
# T1 sequence (Q16539 whole entry): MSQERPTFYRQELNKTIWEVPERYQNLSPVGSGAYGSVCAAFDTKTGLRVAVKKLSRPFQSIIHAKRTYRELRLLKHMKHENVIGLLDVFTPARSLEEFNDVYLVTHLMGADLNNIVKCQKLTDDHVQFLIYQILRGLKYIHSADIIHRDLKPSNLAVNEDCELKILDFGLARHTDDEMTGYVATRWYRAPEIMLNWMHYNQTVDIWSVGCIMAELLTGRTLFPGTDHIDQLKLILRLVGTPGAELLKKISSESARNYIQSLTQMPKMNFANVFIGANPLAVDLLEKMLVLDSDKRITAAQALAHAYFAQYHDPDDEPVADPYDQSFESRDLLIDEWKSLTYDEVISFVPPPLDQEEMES
row,SMILES,pIC50
1,CCOc1ccccc1NCc1onc(-c2ccc(F)cc2)c1-c1nc(C(=O)NC(C)C)cs1 [Example 1665],< 6.00
2,CSc1ccccc1NCc1onc(-c2ccc(F)cc2)c1-c1nc(C(=O)NC(C)C)cs1 [Example 1666],< 6.00
3,Cc1c(Cl)cccc1NCc1onc(-c2ccc(F)cc2)c1-c1nc(C(=O)NC(C)C)cs1 [Example 1667],< 6.00
4,Cc1ccc(NCc2onc(-c3ccc(F)cc3)c2-c2nc(C(=O)NC(C)C)cs2)cc1Cl [Example 1668],< 6.00
5,CC(C)NC(=O)c1csc(-c2c(-c3ccc(F)cc3)noc2CNc2cnc3ccccc3c2)n1 [Example 1669],< 6.00
6,CC(C)NC(=O)c1csc(-c2c(-c3ccc(F)cc3)noc2CNc2cc(F)c(F)cc2F)n1 [Example 1670],< 6.00
7,CC(C)NC(=O)c1csc(-c2c(-c3ccc(F)cc3)noc2CNC2CCCc3ccccc32)n1 (stereo not shown) [Example 1671],< 6.00
8,CC(C)NC(=O)c1csc(-c2c(-c3ccc(F)cc3)noc2CNc2ccccc2C(C)(C)C)n1 [Example 1672],< 6.00
9,Cc1cccc(C(C)C)c1NCc1onc(-c2ccc(F)cc2)c1-c1nc(C(=O)NC(C)C)cs1 [Example 1673],< 6.00
10,CC(C)NC(=O)c1csc(-c2c(-c3ccc(F)cc3)noc2CNc2ccc3ncsc3c2)n1 [Example 1674],< 6.00
11,CC(=O)Nc1ccc(NCc2onc(-c3ccc(F)cc3)c2-c2nc(C(=O)NC(C)C)cs2)cc1 [Example 1675],< 6.00
12,CC(=O)Nc1ccc(NCc2onc(-c3ccc(F)cc3)c2-c2nc(C(=O)NC(C)C)cs2)cn1 [Example 1676],< 6.00
13,CC(C)NC(=O)c1csc(-c2c(-c3ccc(F)cc3)noc2CNc2ccc3c(c2)OCCO3)n1 [Example 1677],< 6.00
14,CC(C)NC(=O)c1csc(-c2c(-c3ccc(F)cc3)noc2CNc2ccccc2-n2cccc2)n1 [Example 1679],< 6.00
15,CC(C)NC(=O)c1csc(-c2c(-c3ccc(F)cc3)noc2CNc2ccc(C(F)(F)F)cc2)n1 [Example 1680],< 6.00
16,CC(C)NC(=O)c1csc(-c2c(-c3ccc(F)cc3)noc2CNc2cccc(C(F)(F)F)c2)n1 [Example 1681],< 6.00
17,CC(C)NC(=O)c1csc(-c2c(-c3ccc(F)cc3)noc2CNc2ccc(Cl)c(Cl)c2)n1 [Example 1682],< 6.00
18,Cc1cccc(C(C)(C)C)c1NCc1onc(-c2ccc(F)cc2)c1-c1nc(C(=O)NC(C)C)cs1 [Example 1683],< 6.00
19,CC(C)NC(=O)c1csc(-c2c(-c3ccc(F)cc3)noc2CNc2ccc(N(C)C)cc2)n1 [Example 1684],< 6.00
20,CC(C)NC(=O)c1csc(-c2c(-c3ccc(F)cc3)noc2CNc2ccccc2-c2ccccc2)n1 [Example 1685],< 6.00
21,CC(C)NC(=O)c1csc(-c2c(-c3ccc(F)cc3)noc2CNc2ccc(OC(F)(F)F)cc2)n1 [Example 1686],< 6.00
22,CC(C)NC(=O)c1csc(-c2c(-c3ccc(F)cc3)noc2CNc2c(C(C)C)cccc2C(C)C)n1 [Example 1687],< 6.00
23,CC(C)NC(=O)c1csc(-c2c(-c3ccc(F)cc3)noc2CNc2ccc(F)cc2C(F)(F)F)n1 [Example 1688],< 6.00
24,CC(C)NC(=O)c1csc(-c2c(-c3ccc(F)cc3)noc2CNc2cc(C(F)(F)F)ccc2F)n1 [Example 1689],< 6.00
25,CC(C)NC(=O)c1csc(-c2c(-c3ccc(F)cc3)noc2CNc2ccc(F)c(C(F)(F)F)c2)n1 [Example 1690],< 6.00
26,CCOc1ccc(OCC)c(NCc2onc(-c3ccc(F)cc3)c2-c2nc(C(=O)NC(C)C)cs2)c1 [Example 1691],< 6.00

row,SMILES,pIC50
1,CC(C)NC(=O)c1csc(-c2c(-c3ccc(F)cc3)noc2CNc2cc(Cl)c(Cl)c(Cl)c2)n1 [Example 1692],< 6.00
2,CC(C)NC(=O)c1csc(-c2c(-c3ccc(F)cc3)noc2CNc2ccccc2C(=O)c2ccccc2)n1 [Example 1693],< 6.00
3,CC(C)NC(=O)c1csc(-c2c(-c3ccc(F)cc3)noc2CNc2ccccc2COc2ccccc2)n1 [Example 1694],< 6.00
4,COc1ccc(-c2ccccc2)cc1NCc1onc(-c2ccc(F)cc2)c1-c1nc(C(=O)NC(C)C)cs1 [Example 1695],≥ 6.00
5,CC(C)NC(=O)c1csc(-c2c(-c3ccc(F)cc3)noc2CNc2ncccc2OCc2ccccc2)n1 [Example 1696],< 6.00
6,CC(C)NC(=O)c1csc(-c2c(-c3ccc(F)cc3)noc2CNc2cc(C(F)(F)F)ccc2C(F)(F)F)n1 [Example 1697],< 6.00
7,CC(C)NC(=O)c1csc(-c2c(-c3ccc(F)cc3)noc2CNc2cc(C(F)(F)F)cc(C(F)(F)F)c2)n1 [Example 1698],< 6.00
8,CC(C)NC(=O)c1csc(-c2c(-c3ccc(F)cc3)noc2CNc2ccc(C(F)(F)F)cc2C(F)(F)F)n1 [Example 1699],< 6.00
9,CC(C)NC(=O)c1csc(-c2c(-c3ccc(F)cc3)noc2CBr)n1 [Example 1700],< 6.00
10,Cc1nc(-c2ccc(F)cc2)c(-c2nc(C(=O)NC3CCCc4ccccc43)cs2)s1 (stereo not shown) [Example 1701],< 6.00
11,COc1ccc(NC(=O)c2csc(-c3sc(C)nc3-c3ccc(F)cc3)n2)cc1OC [Example 1702],≥ 6.00
12,Cc1nc(-c2ccc(F)cc2)c(-c2nc(C(=O)N(CCC#N)Cc3ccccc3)cs2)s1 [Example 1704],< 6.00
13,Cc1nc(-c2ccc(F)cc2)c(-c2nc(C(=O)NC3CCC3)cs2)s1 [Example 1714],≥ 6.00
14,Cc1nc(-c2ccc(F)cc2)c(-c2nc(C(=O)NC3CCCC3)cs2)s1 [Example 1721],≥ 6.00
15,Cc1nc(-c2ccc(F)cc2)c(-c2nc(C(=O)NCc3ccco3)cs2)s1 [Example 1731],≥ 6.00
16,Cc1nc(-c2ccc(F)cc2)c(-c2nc(C(=O)NC3CCCCC3)cs2)s1 [Example 1732],≥ 6.00
17,Cc1nc(-c2ccc(F)cc2)c(-c2nc(C(=O)NCC3CCCO3)cs2)s1 (stereo not shown) [Example 1733],≥ 6.00
18,Cc1nc(-c2ccc(F)cc2)c(-c2nc(C(=O)NC3CONC3=O)cs2)s1 (stereo not shown) [Example 1736],< 6.00
19,Cc1nc(-c2ccc(F)cc2)c(-c2nc(C(=O)NN3CCOCC3)cs2)s1 [Example 1737],< 6.00
20,Cc1nc(-c2ccc(F)cc2)c(-c2nc(C(=O)NCc3ccccc3)cs2)s1 [Example 1739],≥ 6.00
21,Cc1nc(-c2ccc(F)cc2)c(-c2nc(C(=O)NCc3cccnc3)cs2)s1 [Example 1740],≥ 6.00
22,Cc1nc(-c2ccc(F)cc2)c(-c2nc(C(=O)NCc3ccccn3)cs2)s1 [Example 1741],≥ 6.00
23,Cc1nc(-c2ccc(F)cc2)c(-c2nc(C(=O)NCc3ccncc3)cs2)s1 [Example 1742],≥ 6.00
24,Cc1nc(-c2ccc(F)cc2)c(-c2nc(C(=O)NCc3cccs3)cs2)s1 [Example 1743],≥ 6.00
25,Cc1nc(-c2ccc(F)cc2)c(-c2nc(C(=O)NC3CCC(C)CC3)cs2)s1 (stereo not shown) [Example 1744],≥ 6.00

# The remaining lines, values ahead:
row,pIC50,SMILES
1,< 6.00,Cc1nc(-c2ccc(F)cc2)c(-c2nc(C(=O)O)cs2)s1 [Example 1703]
2,≥ 6.00,CNC(=O)c1csc(-c2sc(C)nc2-c2ccc(F)cc2)n1 [Example 1705]
3,≥ 6.00,CCNC(=O)c1csc(-c2sc(C)nc2-c2ccc(F)cc2)n1 [Example 1706]
4,≥ 6.00,C#CCNC(=O)c1csc(-c2sc(C)nc2-c2ccc(F)cc2)n1 [Example 1707]
5,≥ 6.00,Cc1nc(-c2ccc(F)cc2)c(-c2nc(C(=O)NCC#N)cs2)s1 [Example 1708]
6,< 6.00,Cc1nc(-c2ccc(F)cc2)c(-c2nc(C(=O)NC3CC3)cs2)s1 [Example 1709]
7,< 6.00,CCCNC(=O)c1csc(-c2sc(C)nc2-c2ccc(F)cc2)n1 [Example 1710]
8,< 6.00,Cc1nc(-c2ccc(F)cc2)c(-c2nc(C(=O)NCCN)cs2)s1 [Example 1711]
9,≥ 6.00,Cc1nc(-c2ccc(F)cc2)c(-c2nc(C(=O)NCCO)cs2)s1 [Example 1712]
10,< 6.00,Cc1nc(-c2ccc(F)cc2)c(-c2nc(C(=O)NCCC#N)cs2)s1 [Example 1713]
11,≥ 6.00,Cc1nc(-c2ccc(F)cc2)c(-c2nc(C(=O)NCC3CC3)cs2)s1 [Example 1715]
12,< 6.00,CCC(C)NC(=O)c1csc(-c2sc(C)nc2-c2ccc(F)cc2)n1 (stereo not shown) [Example 1716]
13,< 6.00,Cc1nc(-c2ccc(F)cc2)c(-c2nc(C(=O)NCC(C)C)cs2)s1 [Example 1717]
14,≥ 6.00,Cc1nc(-c2ccc(F)cc2)c(-c2nc(C(=O)NCCCO)cs2)s1 [Example 1718]
15,≥ 6.00,Cc1nc(-c2ccc(F)cc2)c(-c2nc(C(=O)NC(C)CO)cs2)s1 (stereo not shown) [Example 1719]
16,< 6.00,COCCNC(=O)c1csc(-c2sc(C)nc2-c2ccc(F)cc2)n1 [Example 1720]
17,< 6.00,CCCC(C)NC(=O)c1csc(-c2sc(C)nc2-c2ccc(F)cc2)n1 (stereo not shown) [Example 1722]
18,< 6.00,CCC(C)CNC(=O)c1csc(-c2sc(C)nc2-c2ccc(F)cc2)n1 (stereo not shown) [Example 1723]
19,< 6.00,Cc1nc(-c2ccc(F)cc2)c(-c2nc(C(=O)NC(C)C(C)C)cs2)s1 (stereo not shown) [Example 1724]
20,≥ 6.00,Cc1nc(-c2ccc(F)cc2)c(-c2nc(C(=O)NCCC(C)C)cs2)s1 [Example 1725]
21,< 6.00,Cc1nc(-c2ccc(F)cc2)c(-c2nc(C(=O)NCCN(C)C)cs2)s1 [Example 1726]
22,≥ 6.00,COCC(C)NC(=O)c1csc(-c2sc(C)nc2-c2ccc(F)cc2)n1 (stereo not shown) [Example 1727]
23,≥ 6.00,CCC(CO)NC(=O)c1csc(-c2sc(C)nc2-c2ccc(F)cc2)n1 (stereo not shown) [Example 1728]
24,≥ 6.00,CCC(CO)NC(=O)c1csc(-c2sc(C)nc2-c2ccc(F)cc2)n1 (stereo not shown) [Example 1729]
25,≥ 6.00,Cc1nc(-c2ccc(F)cc2)c(-c2nc(C(=O)NCCCCO)cs2)s1 [Example 1730]
26,< 6.00,Cc1nc(-c2ccc(F)cc2)c(-c2nc(C(=O)NCCC(C)(C)C)cs2)s1 [Example 1734]
27,< 6.00,Cc1nc(-c2ccc(F)cc2)c(-c2nc(C(=O)NC(C)CC(C)C)cs2)s1 (stereo not shown) [Example 1735]
28,≥ 6.00,Cc1nc(-c2ccc(F)cc2)c(-c2nc(C(=O)NC(CO)C(C)C)cs2)s1 (stereo not shown) [Example 1738]
